# Experimental data taken from patent US20210144999A1, “COMPOSITIONS COMPRISING HYDROXYCINNAMIC ACID AND RELATED CONJUGATES, ANALOGUES AND DERIVATIVES, AND METHODS OF USE THEREOF” (YEDA RESEARCH AND DEVELOPMENT CO. LTD., priority 2017, published 2021).
# Entries after “also recorded” stand apart in the source; their conditions may differ.
# What was measured:
# [1] = test system: P. syringae strain DC3000 pv tomato; assay: Bioprotection of tomato plants by B. subtilis against pseudomonas syringae; format: in vivo; settings: 5 μM RID with 1000 B. subtilis cells; 100 or 10,000 pathogen cells
# Experimental: FIGS. 18A-18B: Purified RID improved the bioprotection versus pseudomonas syringae achieved by Bacillus. Bacillus strain B. subtilis 3610 (B.S) was used. The bacterial strain was maintained on LB plates. 1000 cells either applied or non-applied with 5 μM of RID were added to tomato plants grown on agrophonic beads. Plants were incubated at 28±2° C. for 15 days. P. syringae strain DC3000 pv tomato (P.S) culture was grown in LB at 37° C. to OD600=0.2 to 0.3 (3*10^8 cells per ml) and diluted to 100 cells (FIG. 18A) 10,000 (FIG. 18B) cells retrospectively (w/v) into the plant media. Plants were further incubated at 28±2° C. for 10 days and the growth of the pathogen was measured and compared with the control. Three replications were maintained for each assay. SD represents the average of three independent experiments.
# Bacillus strain B. subtilis 3610 (B.S) was maintained on LB plates. 1000 cells of B.S. with or without the addition of 5 μM of RID were added to tomato plants grown on agrophonic beads. Plants were incubated at 28±2° C. for 15 days.
# P. syringae strain DC3000 pv tomato (P.S) was grown in LB at 37° C. to OD600=0.2 to 0.3 (3*10^8 cells per ml) and diluted to 10,000 cells retrospectively (w/v) into the plant media. Plants were further incubated at 28±2° C. for 10 days and the growth ofthe pathogen was measured and compared with the control. […]
# rhyzoctonia solani = assay: Bioprotection of tomato plants by B. subtilis against rhyzoctonia solani; format: in vivo; settings: RID with B. subtilis
# Experimental: ISR assay. Arabidopsis thaliana or Microtome tomato seedlings were grown on NITCH-agar for 10 days. Then each seedling was transferred to separate solid MSgg plate. In order to test the effects of either treated or untreated B. subtilis on the Induced systemic resistance (ISR), bacterial cells were inoculated aside to the root (as mentioned above) and incubated at 23° C. for five days. Alternatively and as indicated in the corresponding figure legend, we inoculated the bacterial cells directly on the root. Then the first leaf was infected by puncturing by needle and inoculating with the necrosis-causing pathogens, Pseudomonas syringae DC3000 or rhyzoctonia solani (Kuhn). Five days after infection with P. syringae, plants were further analyzed.
# Tomato infections (FIGS. 18A, 18B and 19).
# [2] = test system: B. subtilis 3610 Δ yclQ mutant biofilms; assay: Biofilm (pellicle) development of B. subtilis strain defective in iron uptake; format: cell-based; settings: Δ yclQ mutant pellicles with or without purified RID
# Source text: Biofilms grown in the presence and absence of RID in B. subtilis 3610 and its derivate (Δ yclQ) mutant in iron uptake pathways (Zawadzka et al., 2009). Untreated pellicles are shown in the top panel. Pellicles applied with purified RID are shown below.
# R. solani = assay: Bioprotection of Arabidopsis thaliana by B. subtilis against rhyzoctonia solani; format: in vivo; settings: 5 μM purified RID with 1000 B. subtilis cells, 100 or 10,000 pathogen cells
# Experimental: (§1) FIG. 19: Purified RID improved the bioprotection versus pseudomonas syringae and rhyzoctonia solani achieved by Bacillus. We used Bacillus strain B. subtilis 3610 (B.S). The bacterial strain was maintained on LB plates. 1000 cells either applied or non-applied with 5 μM of purified RID were added to Arabidopsis thaliana plants grown on MS solid media. Plants were incubated at 26±2° C. for 5 days. P. syringae (P.S) or R. solani (R.S) were grown in TSB at 37° C. to OD600=0.2 to 0.3 (3*10^8 cells per ml) and diluted to 100 cells, or 10,000 cells retrospectively (w/v) into the plant media. Plants were further incubated at 28±2° C. for 5 days and the growth of the pathogen was measured and compared with the control. Three replications were maintained for each assay. SD represents the average of three independent experiments.
# (§2) Bacillus strain B. subtilis 3610 (B.S) was maintained on LB plates. 1000 cells with or without 5 μM of purified RID were added to Arabidopsis thaliana plants grown on MS solid media. Plants were incubated at 26±2° C. for 5 days. P. syringae (P.S) or R. solani (R.S) were grown in TSB at 37° C. to OD600=0.2 to 0.3 (3*10^8 cells per ml) and diluted to 100 cells, or 10,000 cells retrospectively (w/v) into the plant media. Plants were further incubated at 28±2° C. for 5 days and the growth of the pathogen was measured and compared with the control. […]
# P. syringae = assay: Bioprotection of Arabidopsis thaliana by B. subtilis against pseudomonas syringae; format: in vivo; settings: 5 μM purified RID with 1000 B. subtilis cells, 100 or 10,000 pathogen cells
# Experimental: as §1, §2
# B. subtilis biofilms = assay: B. subtilis biofilm stability / maintenance in vitro; format: cell-based; settings: in vitro and in vivo, specific environmental conditions such as iron starvation
# Experimental: Shown are biofilms of treated and untreated B. subtilis biofilms.
# Strains and Media All experiments were performed with B. subtilis NCBI3610 and its derivatives. Assays were carried out with the biofilm-inducing medium, MSgg: 5 mM potassium phosphate, 100 mM MOPS (pH 7), 2 mM MgCl2, 50 μM MnCl2, 1 μM ZnCl2, 2 μM thiamine, 0.5% glycerol, 0.5% glutamate, 50 μg/ml tryptophan, 50 μg/mlphenylalanine 50 μg/ml threonine, 700 μM CaCl2, and 50 μM (for growth assays) or 125 μM (for biofilm assays) FeCl3^1. A solid MSgg medium was obtained by adding Bacto agar (Difco) to a final concentration of 1.5%. When necessary, selective medium was prepared with LB-agar or LB broth, supplemented with: 100 μg/ml ampicillin (amp) (AG Scientific), or 10 μg/ml kanamycin (kan) (AG Scientific), or 10 μg/ml chloramphenicol (cam) (Amresco), or 10 μg/ml tetracycline (tet) (Amresco), or 100 μg/ml spectinomycin (spec) (Tivan Biotech), or 1 μg/mlerythromycin (erm) (Amresco)+25 μg/ml lincomycin (linc) (Sigma Aldrich).
structure (smiles),measurement,setting,value
"NCCCCNC(=O)/C=C/c1ccc(O)c(O)c1 [RID, caffeoyl putrescine]",B. subtilis-mediated protection of tomato plants from pseudomonas syringae pv. Tomato,[1],enhanced the protective effects of Bacillus subtilis on tomato plant mortality; also recorded: improved significantly the duration of protection achieved by Bacillus subtilis and the resistance to high inoculum of infection
same,B. subtilis-mediated protection of tomato plants from rhyzoctonia solani,rhyzoctonia solani,enhanced the protective effects of Bacillus subtilis on tomato plant mortality
same,biofilm development of iron-uptake defective B. subtilis,[2],compensated for the biofilm defect; also recorded: can promote the development of biofilms
same,B. subtilis-mediated protection of Arabidopsis (Brassicaceae) from rhyzoctonia solani,R. solani,improved significantly protection achieved by Bacillus subtilis
same,B. subtilis-mediated protection of Arabidopsis (Brassicaceae) from rhyzoctonia solani,R. solani; listed as purified RID,significantly improve the protection of Brassicaceae plants
same,B. subtilis-mediated protection of Arabidopsis (Brassicaceae) from pseudomonas syringae,P. syringae,improved significantly protection achieved by Bacillus subtilis
same,B. subtilis-mediated protection of Arabidopsis (Brassicaceae) from pseudomonas syringae,P. syringae; listed as purified RID,significantly improve the protection of Brassicaceae plants
same,disassembly of B. subtilis biofilms,B. subtilis biofilms,blocks the disassembly of B. subtilis biofilms in vitro and in vivo
